Columns and labels:
Assay type in all cases: biochemical
FXa = FXa (Homo sapiens, UniProt P00742); test: Related protease inhibition: FXa (fluorogenic substrate at Km); conditions: class symbols per Table 18
Method: (§1) In vitro inhibition of related proteases was determined using an IC50 assay based on standard literature methods (see e.g. Shori et al., Biochem. Pharmacol., 1992, 43, 1209; Bouckaert et al., European Journal of Medicinal Chemistry 110 (2016) 181). Human serine protease enzyme Plasma Kallikrein, KLK1, FXa, Plasmin, Thrombin and Trypsin were assayed for enzymatic activity using an appropriate fluorogenic substrate at Km concentration, FXIa at fixed substrate concentration of 100 μM and various concentrations of the test compound. Protease activity was measured by monitoring the accumulation of liberated fluorescence from the substrate over 5 min at 25° C. The linear rate of fluorescence increase per minute was expressed as percentage (%) activity. IC50 values were calculated as the concentration of inhibitor giving 50% inhibition of the uninhibited enzyme activity (100%).

Human Factor XIIa = molecular target: T1, Human Factor XIIa (Homo sapiens, UniProt P00748); test: Determination of FXIIa inhibition (fluorogenic substrate H-DPro-Phe-Arg-AFC, IC50 assay); conditions: substrate at Km concentration, 25° C.; category scale; read-out: Human FXII IC50 (nm)
T1 construct: Proteolytic cleavage of FXII to heavy and light chains of FXIIa dramatically increases catalytic activity; purchased Enzyme Research Laboratories
T1 sequence (P00748 373-615 limits assumed): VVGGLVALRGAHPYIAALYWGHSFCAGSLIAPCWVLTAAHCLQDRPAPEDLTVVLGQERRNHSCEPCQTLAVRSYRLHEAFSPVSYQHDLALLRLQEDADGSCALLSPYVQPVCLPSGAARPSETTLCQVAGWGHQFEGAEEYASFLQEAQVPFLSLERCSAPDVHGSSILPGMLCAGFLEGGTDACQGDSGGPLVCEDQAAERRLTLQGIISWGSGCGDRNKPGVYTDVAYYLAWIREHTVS
T1 sequence (P00748 20-372 partner limits assumed): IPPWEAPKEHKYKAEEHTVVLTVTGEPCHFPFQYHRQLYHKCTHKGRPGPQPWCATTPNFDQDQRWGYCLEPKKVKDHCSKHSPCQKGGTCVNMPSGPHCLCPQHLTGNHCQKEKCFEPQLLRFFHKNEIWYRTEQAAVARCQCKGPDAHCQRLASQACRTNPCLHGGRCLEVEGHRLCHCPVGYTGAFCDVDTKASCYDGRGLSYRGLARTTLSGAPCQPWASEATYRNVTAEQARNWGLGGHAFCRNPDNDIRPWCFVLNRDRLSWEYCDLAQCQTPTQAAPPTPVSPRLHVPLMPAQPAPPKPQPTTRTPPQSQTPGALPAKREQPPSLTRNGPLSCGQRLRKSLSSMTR
Procedure, shortened: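 Human FXIIa incubated at 25° C. with fluorogenic H-DPro-Phe-Arg-AFC at its Km concentration plus varying compound levels. Linear fluorescence increase over 5 min taken as % activity; IC50 is concentration halving uninhibited activity.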

KLK1 = KLK1 (Homo sapiens, UniProt P06870); test: Related protease inhibition: KLK1 (fluorogenic substrate at Km); conditions: class symbols per Table 18
KLK1, sequence (P06870 25-262): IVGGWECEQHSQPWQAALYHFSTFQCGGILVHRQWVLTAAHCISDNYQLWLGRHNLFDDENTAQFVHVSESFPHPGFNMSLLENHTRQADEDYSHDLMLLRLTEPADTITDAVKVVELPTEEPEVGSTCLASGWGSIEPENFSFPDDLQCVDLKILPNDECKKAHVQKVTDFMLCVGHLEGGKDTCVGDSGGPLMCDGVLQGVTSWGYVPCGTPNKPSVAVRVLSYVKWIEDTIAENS
Method: as §1

Thrombin = Thrombin (Homo sapiens, UniProt P00734); test: Related protease inhibition: Thrombin (fluorogenic substrate at Km); conditions: class symbols per Table 18
Method: as §1

Plasma Kallikrein = molecular target: T2, Plasma Kallikrein (Homo sapiens, UniProt P03952); test: Related protease inhibition: Plasma Kallikrein (fluorogenic substrate at Km); conditions: class symbols per Table 18, read-out: IC50 (human PKal)
T2 construct: FXIIa converts plasma prekallikrein (PK) to plasma kallikrein (PKa)
T2 sequence (P03952 391-638 limits assumed): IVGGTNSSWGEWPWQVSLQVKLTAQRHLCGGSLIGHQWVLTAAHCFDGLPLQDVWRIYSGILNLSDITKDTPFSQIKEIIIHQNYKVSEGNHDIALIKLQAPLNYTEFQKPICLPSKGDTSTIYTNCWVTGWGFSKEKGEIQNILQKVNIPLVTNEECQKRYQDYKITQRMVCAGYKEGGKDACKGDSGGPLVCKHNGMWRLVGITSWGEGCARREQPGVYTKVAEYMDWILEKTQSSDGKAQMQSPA
T2 sequence (P03952 20-390 partner limits assumed): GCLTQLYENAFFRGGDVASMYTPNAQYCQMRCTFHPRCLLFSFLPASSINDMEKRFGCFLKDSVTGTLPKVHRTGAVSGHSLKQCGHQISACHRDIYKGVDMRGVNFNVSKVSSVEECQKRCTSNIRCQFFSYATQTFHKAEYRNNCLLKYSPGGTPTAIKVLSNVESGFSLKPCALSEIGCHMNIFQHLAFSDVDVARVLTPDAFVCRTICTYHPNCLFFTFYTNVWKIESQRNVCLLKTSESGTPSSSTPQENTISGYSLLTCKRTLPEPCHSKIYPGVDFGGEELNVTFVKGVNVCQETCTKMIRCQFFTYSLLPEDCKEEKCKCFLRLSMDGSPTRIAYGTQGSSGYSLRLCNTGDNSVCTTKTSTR
Procedure, shortened: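 Protease activity against a fluorogenic substrate (Km level; 100 μM fixed for FXIa) is measured at 25° C across various inhibitor concentrations. Liberated fluorescence is tracked for 5 min, and slopes are expressed relative to uninhibited enzyme to give the IC50.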

FXa, sequence (P00742 235-488 limits assumed): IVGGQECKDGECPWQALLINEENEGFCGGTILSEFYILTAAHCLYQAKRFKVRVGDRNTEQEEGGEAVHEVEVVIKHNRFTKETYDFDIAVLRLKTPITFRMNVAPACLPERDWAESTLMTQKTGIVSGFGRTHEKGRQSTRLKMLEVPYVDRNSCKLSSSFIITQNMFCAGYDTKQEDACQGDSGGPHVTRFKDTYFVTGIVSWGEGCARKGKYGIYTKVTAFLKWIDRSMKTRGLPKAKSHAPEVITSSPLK
FXa, sequence (P00742 41-179 partner limits assumed): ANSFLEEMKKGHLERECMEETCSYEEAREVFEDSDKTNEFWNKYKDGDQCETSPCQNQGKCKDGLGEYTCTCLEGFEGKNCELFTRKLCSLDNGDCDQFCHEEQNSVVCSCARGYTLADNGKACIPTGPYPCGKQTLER

| Compound | IC50 (FXa) | IC50 (Human Factor XIIa) | IC50 (KLK1) | IC50 (Thrombin) | IC50 (Plasma Kallikrein) |
| --- | --- | --- | --- | --- | --- |
| Nc1nccc2c(NCC34CC(CN5CCn6ccnc6C5)(C3)C4)cccc12 [Example 1004, 5-N-[[3-(6,8-Dihydro-5H-imidazo[1,2-a]pyrazin-7-ylmethyl)-1-bicyclo[1.1.1]pentanyl]methyl]isoquinoline-1,5-diamine] | 1 to 3 µM | 3 to 10 µM | 3 to 10 µM | 10 to 40 µM | > 40 µM |
| Cc1cn2ccc(OCC34CC(CNc5cccc6c(N)nccc56)(C3)C4)cc2n1 [Example 1006, N5-((3-(((2-Methylimidazo[1,2-a]pyridin-7-yl)oxy)methyl)bicyclo[1.1.1]pentan-1-yl)methyl)isoquinoline-1,5-diamine] | 1 to 3 µM | 0.1 to 0.3 µM | 1 to 3 µM | 10 to 40 µM | > 40 µM |
| c1cc2cc(NCC34CC(COc5ccn6ccnc6c5)(C3)C4)ccc2cn1 [Example 1011, N-((3-((imidazo[1,2-a]pyridin-7-yloxy)methyl)bicyclo[1.1.1]pentan-1-yl)methyl)isoquinolin-6-amine] | 1 to 3 µM | 10 to 40 µM | 10 to 40 µM | 10 to 40 µM | > 100 µM |
| Cc1cc2c(NCC34CC(COc5ccn6ccnc6c5)(C3)C4)ccnc2[nH]1 [Example 1012, N-((3-((Imidazo[1,2-a]pyridin-7-yloxy)methyl)bicyclo[1.1.1]pentan-1-yl)methyl)-2-methyl-1H-pyrrolo[2,3-b]pyridin-4-amine] | 1 to 3 µM | 1 to 3 µM | > 40 µM | 1 to 3 µM | > 100 µM |
| Nc1nccc2c(NCC34CC(C(=O)N5CCn6ccnc6C5)(C3)C4)cccc12 [Example 1016, [3-[[(1-Aminoisoquinolin-5-yl)amino]methyl]-1-bicyclo[1.1.1]pentanyl]-(6,8-dihydro-5H-imidazo[1,2-a]pyrazin-7-yl)methanone] | > 40 µM | 3 to 10 µM | 3 to 10 µM | > 40 µM | > 40 µM |
| Nc1nccc2c(NCC34CC(COc5ccc6nccn6c5)(C3)C4)cccc12 [Example 1017, 5-N-[[3-(Imidazo[1,2-a]pyridin-6-yloxymethyl)-1-bicyclo[1.1.1]pentanyl]methyl]isoquinoline-1,5-diamine] | 10 to 40 µM | 0.1 to 0.3 µM | 3 to 10 µM | 10 to 40 µM | > 40 µM |
| Cn1ccc(OCC23CC(CNc4cccc5c(N)nccc45)(C2)C3)cc1=O [Example 1019, 4-[[3-[[(1-aminoisoquinolin-5-yl)amino]methyl]-1-bicyclo[1.1.1]pentanyl]methoxy]-1-methylpyridin-2-one] | 10 to 40 µM | 0.3 to 1 µM | 3 to 10 µM | 10 to 40 µM | > 40 µM |
| Nc1nccc2c(NCC34CC(COc5cnc6cc[nH]c6c5)(C3)C4)cccc12 [Example 1101, 5-N-[[3-(1H-pyrrolo[3,2-b]pyridin-6-yloxymethyl)-1-bicyclo[1.1.1]pentanyl]methyl]isoquinoline-1,5-diamine] | 1 to 3 µM | 3 to 10 µM | 3 to 10 µM | 10 to 40 µM | > 40 µM |
| Nc1nccc2c(NCC34CC(COc5ccc6nc[nH]c6c5)(C3)C4)cccc12 [Example 1105, N5-((3-(((1H-benzo[d]imidazol-6-yl)oxy)methyl)bicyclo[1.1.1]pentan-1-yl)methyl)isoquinoline-1,5-diamine] | 1 to 3 µM | 3 to 10 µM | 3 to 10 µM | 10 to 40 µM | > 40 µM |
| Nc1nccc2c(NCC34CC(COc5ccc6c(c5)C(=O)NC6)(C3)C4)cccc12 [Example 1109, 6-((3-(((1-aminoisoquinolin-5-yl)amino)methyl)bicyclo[1.1.1]pentan-1-yl)methoxy)isoindolin-1-one] | 10 to 40 µM | 0.3 to 1 µM | 1 to 3 µM | 10 to 40 µM | > 40 µM |
| Nc1nccc2c(NCC34CC(COC5Cc6nccn6C5)(C3)C4)cccc12 (stereo not drawn) [Example 1118, N5-((3-(((6,7-dihydro-5H-pyrrolo[1,2-a]imidazol-6-yl)oxy)methyl)bicyclo[1.1.1]pentan-1-yl)methyl)isoquinoline-1,5-diamine] | > 40 µM | 1 to 3 µM | 3 to 10 µM | 10 to 40 µM | > 40 µM |
| Nc1nccc2c(NCC34COC(COc5ccc6nnc(C(F)F)n6n5)(C3)C4)cccc12 [Example 2204, N5-((1-(((3-(difluoromethyl)-[1,2,4]triazolo[4,3-b]pyridazin-6-yl)oxy)methyl)-2-oxabicyclo[2.1.1]hexan-4-yl)methyl)isoquinoline-1,5-diamine] | > 40 µM | 0.3 to 1 µM | 3 to 10 µM | > 40 µM | > 40 µM |
| Nc1nccc2c(NC[C@H]3C[C@H](COc4ccn5ccnc5c4)C3)cccc12 [Example 4401, N5-((trans-3-((imidazo[1,2-a]pyridin-7-yloxy)methyl)cyclobutyl)methyl)isoquinoline-1,5-diamine] | > 40 µM | 0.3 to 1 µM | 1 to 3 µM | > 40 µM | > 40 µM |
| Nc1nccc2c(NC[C@H]3C[C@@H](COc4ccn5ccnc5c4)C3)cccc12 [Example 5003, N5-((cis-3-((imidazo[1,2-a]pyridin-7-yloxy)methyl)cyclobutyl)methyl)isoquinoline-1,5-diamine] | > 40 µM | 0.1 to 0.3 µM | 3 to 10 µM | > 40 µM | > 40 µM |
| Nc1nccc2c(NCC34CC(COc5ccn6ccnc6c5)(CO3)C4)cccc12 [Example 6601, 5-N-[[4-(Imidazo[1,2-a]pyridin-7-yloxymethyl)-2-oxabicyclo[2.1.1]hexan-1-yl]methyl]isoquinoline-1,5-diamine] | 10 to 40 µM | 0.01 to 0.1 µM | 3 to 10 µM | 10 to 40 µM | > 40 µM |
| Cc1cc2c(NCC34CC(COc5ccn6ccnc6c5)(CO3)C4)ccnc2[nH]1 [Example 6605, N-((4-((imidazo[1,2-a]pyridin-7-yloxy)methyl)-2-oxabicyclo[2.1.1]hexan-1-yl)methyl)-2-methyl-1H-pyrrolo[2,3-b]pyridin-4-amine] | 10 to 40 µM | 3 to 10 µM | 10 to 40 µM | 10 to 40 µM | > 40 µM |
| Nc1nccc2c(NCC34CC(COc5ccc6nnc(C(F)F)n6n5)(CO3)C4)cccc12 [Example 6608, N5-((4-(((3-(difluoromethyl)-[1,2,4]triazolo[4,3-b]pyridazin-6-yl)oxy)methyl)-2-oxabicyclo[2.1.1]hexan-1-yl)methyl)isoquinoline-1,5-diamine] | > 40 µM | 0.3 to 1 µM | 3 to 10 µM | > 40 µM | > 40 µM |
| Cn1ccc(OCC23COC(CNc4cccc5c(N)nccc45)(C2)C3)cc1=O [Example 6609, 4-((1-(((1-aminoisoquinolin-5-yl)amino)methyl)-2-oxabicyclo[2.1.1]hexan-4-yl)methoxy)-1-methylpyridin-2(1H)-one] | > 40 µM | 0.1 to 0.3 µM | 3 to 10 µM | > 40 µM | > 40 µM |
| Nc1nccc2c(NCC34CC(COc5ccc6nccn6c5)(CCO3)C4)cccc12 [Example 10904, N5-((5-((imidazo[1,2-a]pyridin-6-yloxy)methyl)-2-oxabicyclo[3.1.1]heptan-1-yl)methyl)isoquinoline-1,5-diamine] | > 40 µM | 0.01 to 0.1 µM | 3 to 10 µM | 10 to 40 µM | > 40 µM |
| Cn1ccc(OCC23CC(CNc4cccc5c(N)nccc45)(CN2C(=O)OCc2ccccc2)C3)cc1=O [Example 13001, benzyl 4-(((1-aminoisoquinolin-5-yl)amino)methyl)-1-(((1-methyl-2-oxo-1,2-dihydropyridin-4-yl)oxy)methyl)-2-azabicyclo[2.1.1]hexane-2-carboxylate] | > 4 µM | 0.01 to 0.1 µM | > 4 µM | – | > 40 µM |

Reference: patent publication US20240327412A1, “FACTOR XIIA INHIBITORS” (KALVISTA PHARMACEUTICALS LIMITED, priority 2021, published 2024)
